Assay results as given in US12559492B2, “BRAF degraders” (C4 Therapeutics, Inc., priority 2020, dated 2026).
Structures can show the parent of a compound that is named as a salt.

Target: BRAF^V600E protein (Homo sapiens, UniProt P15056, V600E)
Test: HiBiT cellular BRAF V600E degradation assay
Type: cell-based
Conditions: 24 h incubation; for DC50: A375.10 cells (HiBiT tag knocked in at N-terminal of BRAF V600E), concentration at which 50% of total cellular BRAF V600E is degraded; for Emax: read-out: HiBit 24 h Emax
[1] = A375.10 cells, Emax = amount of residual protein remaining in the cell after compound treatment

Chain of BRAF^V600E protein (P15056 whole entry V600E): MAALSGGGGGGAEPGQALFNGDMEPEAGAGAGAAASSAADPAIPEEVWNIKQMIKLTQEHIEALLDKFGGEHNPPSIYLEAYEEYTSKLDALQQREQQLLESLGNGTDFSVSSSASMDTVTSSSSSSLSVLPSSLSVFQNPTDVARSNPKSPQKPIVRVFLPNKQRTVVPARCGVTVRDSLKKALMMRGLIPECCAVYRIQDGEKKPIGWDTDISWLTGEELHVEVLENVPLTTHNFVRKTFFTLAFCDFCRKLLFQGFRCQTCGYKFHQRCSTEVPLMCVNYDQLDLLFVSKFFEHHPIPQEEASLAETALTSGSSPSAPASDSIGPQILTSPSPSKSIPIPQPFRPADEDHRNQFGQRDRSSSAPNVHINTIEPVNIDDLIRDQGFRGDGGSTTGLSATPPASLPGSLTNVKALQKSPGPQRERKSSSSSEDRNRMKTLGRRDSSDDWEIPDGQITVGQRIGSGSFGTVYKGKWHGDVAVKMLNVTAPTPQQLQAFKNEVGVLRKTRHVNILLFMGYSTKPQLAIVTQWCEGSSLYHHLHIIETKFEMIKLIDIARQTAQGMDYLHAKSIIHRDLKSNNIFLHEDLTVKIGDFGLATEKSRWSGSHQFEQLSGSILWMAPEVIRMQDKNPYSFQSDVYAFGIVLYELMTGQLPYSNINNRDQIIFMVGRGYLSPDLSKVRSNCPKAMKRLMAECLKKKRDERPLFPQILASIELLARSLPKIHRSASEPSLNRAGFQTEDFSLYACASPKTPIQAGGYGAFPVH

| DC50 | Emax [1] | HiBit 24 h Emax [1] | Compound |
| --- | --- | --- | --- |
| 0.0275 µM | 21.6% |  | CCN(C)S(=O)(=O)Nc1ccc(F)c(C(=O)c2c[nH]c3ncc(-c4ccc(N5CCN(C(=O)CN6CCC(n7cc(NC8CCC(=O)NC8=O)cn7)CC6)CC5)cc4)cc23)c1F (stereo not drawn) [Example A80, 5-[4-[4-[2-[4-[4-[(2,6-Dioxopiperidin-3-yl)amino]pyrazol-1-yl]piperidin-1-yl]acetyl]piperazin-1-yl]phenyl]-3-[3-[[ethyl(methyl)sulfamoyl]amino]-2,6-difluorobenzoyl]-1H-pyrrolo[2,3-b]pyridine] |
| 0.049 µM | 13% |  | CCN(C)S(=O)(=O)Nc1ccc(F)c(C(=O)c2c[nH]c3ncc(-c4ccc(N5CCN(C(=O)CCCN6CCC(c7ccc(C8CCC(=O)NC8=O)cc7)CC6)CC5)nc4)cc23)c1F (stereo not drawn) [Example A81, 5-[6-[4-[4-[4-[4-(2,6-Dioxopiperidin-3-yl)phenyl]piperidin-1-yl]butanoyl]piperazin-1-yl]pyridin-3-yl]-3-[3-[[ethyl(methyl)sulfamoyl]amino]-2,6-difluorobenzoyl]-1H-pyrrolo[2,3-b]pyridine] |
| 0.00765 µM | 9.6% |  | CCN(C)S(=O)(=O)Nc1ccc(F)c(C(=O)c2c[nH]c3ncc(-c4ccc(N5CCN(C(=O)CN6CCC(c7ccc(C8CCC(=O)NC8=O)cc7)CC6)CC5)nc4)cc23)c1F (stereo not drawn) [Example A82, 5-[6-[4-[2-[4-[4-(2,6-Dioxopiperidin-3-yl)phenyl]piperidin-1-yl]acetyl]piperazin-1-yl]pyridin-3-yl]-3-[3-[[ethyl(methyl)sulfamoyl]amino]-2,6-difluorobenzoyl]-1H-pyrrolo[2,3-b]pyridine] |
| 0.00697 µM | 8.89% |  | CCN(C)S(=O)(=O)Nc1ccc(F)c(C(=O)c2c[nH]c3ncc(C#Cc4ccc(C(=O)N5CCC(N6CCC(c7ccc(NC8CCC(=O)NC8=O)cc7)CC6)CC5)cc4)cc23)c1F (stereo not drawn) [Example A83, 5-[2-[4-[4-[4-[4-[(2,6-Dioxopiperidin-3-yl)amino]phenyl]piperidin-1-yl]piperidine-1-carbonyl]phenyl]ethynyl]-3-[3-[[ethyl(methyl)sulfamoyl]amino]-2,6-difluorobenzoyl]-1H-pyrrolo[2,3-b]pyridine] |
| 0.016 µM | 11% |  | O=C1CCC(c2ccc(C3CCN(CC(=O)N4CCN(c5ccc(-c6cnc7[nH]cc(C(=O)c8c(F)ccc(NS(=O)(=O)N9CCCC9)c8F)c7c6)cc5)CC4)CC3)cc2)C(=O)N1 (stereo not drawn) [Example A85, N-[3-[5-[4-[4-[2-[4-[4-(2,6-Dioxopiperidin-3-yl)phenyl]piperidin-1-yl]acetyl]piperazin-1-yl]phenyl]-1H-pyrrolo[2,3-b]pyridine-3-carbonyl]-2,4-difluorophenyl]pyrrolidine-1-sulfonamide] |
| 0.032 µM | 23% |  | CCN(C)S(=O)(=O)Nc1ccc(F)c(C(=O)c2c[nH]c3ncc(C#Cc4ccc(C(=O)NCCN5CCC(c6ccc(NC7CCC(=O)NC7=O)cc6)CC5)cc4)cc23)c1F (stereo not drawn) [Example A86, N-[2-[4-[4-[(2,6-Dioxopiperidin-3-yl)amino]phenyl]piperidin-1-yl]ethyl]-4-[2-[3-[3-[[ethyl(methyl)sulfamoyl]amino]-2,6-difluorobenzoyl]-1H-pyrrolo[2,3-b]pyridin-5-yl]ethynyl]benzamide] |
| 0.006 µM | 7% |  | CCN(C)S(=O)(=O)Nc1ccc(F)c(C(=O)c2c[nH]c3ncc(-c4cnc(N5CCN(C(=O)CN6CCC(c7ccc(NC89CC(C8)C(=O)NC9=O)cc7)CC6)CC5)nc4)cc23)c1F [Example A87, 5-[2-[4-[2-[4-[4-[(2,4-Dioxo-3-azabicyclo[3.1.1]heptan-1-yl)amino]phenyl]piperidin-1-yl]acetyl]piperazin-1-yl]pyrimidin-5-yl]-3-[3-[[ethyl(methyl)sulfamoyl]amino]2,6-difluorobenzoyl]-1H-pyrrolo[2,3-b]pyridine; formic acid] |
| 0.052 µM | 26% |  | O=C1CCN(c2cccc(C3CCN(CC(=O)N4CCN(c5ccc(-c6cnc7[nH]cc(C(=O)c8c(F)ccc(NS(=O)(=O)N9CCCC9)c8F)c7c6)cc5)CC4)CC3)c2)C(=O)N1 [Example A88, N-[3-[5-[4-[4-[2-[4-[3-(2,4-Dioxo-1,3-diazinan-1-yl)phenyl]piperidin-1-yl]acetyl]piperazin-1-yl]phenyl]-1H-pyrrolo[2,3-b]pyridine-3-carbonyl]-2,4-difluorophenyl]pyrrolidine-1-sulfonamide] |
| 0.073 µM | 12% |  | O=C1CCC(Nc2ccc(C3CCN(CCCC(=O)N4CC(c5ccc(-c6cnc7[nH]cc(C(=O)c8c(F)ccc(NS(=O)(=O)N9CCCC9)c8F)c7c6)cc5)C4)CC3)cc2)C(=O)N1 (stereo not drawn) [Example A89, N-[3-[5-[4-[1-[4-[4-[4-[(2,6-dioxopiperidin-3-yl)amino]phenyl]piperidin-1-yl]butanoyl]azetidin-3-yl]phenyl]-1H-pyrrolo[2,3-b]pyridine-3-carbonyl]-2,4-difluorophenyl]pyrrolidine-1-sulfonamide] |
| 0.031 µM | 20% |  | CCN(C)S(=O)(=O)Nc1ccc(F)c(C(=O)c2c[nH]c3ncc(-c4cnc(N5CCC(N(C)CC(=O)N6CCC(c7ccc(NC8CCC(=O)NC8=O)cn7)CC6)CC5)nc4)cc23)c1F (stereo not drawn) [Example A90, 5-[2-[4-[[2-[4-[5-[(2,6-Dioxopiperidin-3-yl)amino]pyridin-2-yl]piperidin-1-yl]-2-oxoethyl]-methylamino]piperidin-1-yl]pyrimidin-5-yl]-3-[3-[[ethyl(methyl)sulfamoyl]amino]-2,6-difluorobenzoyl]-1H-pyrrolo[2,3-b]pyridine;formic acid] |
| 0.005 µM | 8% |  | CCN(C)S(=O)(=O)Nc1ccc(F)c(C(=O)c2c[nH]c3ncc(-c4cnc(N5CCN(C(=O)CN6CCC(c7ccc(N8CCC(=O)NC8=O)cc7)CC6)CC5)nc4)cc23)c1F [Example A91, 5-[2-[4-[2-[4-[4-(2,4-Dioxo-1,3-diazinan-1-yl)phenyl]piperidin-1-yl]acetyl]piperazin-1-yl]pyrimidin-5-yl]-3-[3-[[ethyl(methyl)sulfamoyl]amino]-2,6-difluorobenzoyl]-1H-pyrrolo[2,3-b]pyridine] |
| 0.008 µM | 7% |  | CCN(C)S(=O)(=O)Nc1ccc(F)c(C(=O)c2c[nH]c3ncc(-c4cnc(N5CCC(N(C)C(=O)CN6CCC(c7ccc(NC8CCC(=O)NC8=O)cn7)CC6)CC5)nc4)cc23)c1F (stereo not drawn) [Example A92, 2-[4-[5-[(2,6-Dioxopiperidin-3-yl)amino]pyridin-2-yl]piperidin-1-yl]-N-[1-[5-[3-[3-[[ethyl(methyl)sulfamoyl]amino]-2,6-difluorobenzoyl]-1H-pyrrolo[2,3-b]pyridin-5-yl]pyrimidin-2-yl]piperidin-4-yl]-N-methylacetamide; formic acid] |
| 0.016 µM | 14% |  | CCN(C)S(=O)(=O)Nc1ccc(F)c(C(=O)c2c[nH]c3ncc(-c4cnc(N5CCC(NCC(=O)N6CCC(c7ccc(NC8CCC(=O)NC8=O)cn7)CC6)CC5)nc4)cc23)c1F (stereo not drawn) [Example A93, 5-[2-[4-[[2-[4-[5-[(2,6-Dioxopiperidin-3-yl)amino]pyridin-2-yl]piperidin-1-yl]-2-oxoethyl]amino]piperidin-1-yl]pyrimidin-5-yl]-3-[3-[[ethyl(methyl)sulfamoyl]amino]-2,6-difluorobenzoyl]-1H-pyrrolo[2,3-b]pyridine;formic acid] |
| 0.013 µM |  | 8% | CCN(C)S(=O)(=O)Nc1ccc(F)c(C(=O)c2c[nH]c3ncc(-c4cnc(N5CCC(C(=O)N6CCC(c7ccc(NC8CCC(=O)NC8=O)cc7)CC6)CC5)nc4)cc23)c1F (stereo not drawn) [Example A94, 5-[2-[4-[4-[4-[(2,6-Dioxopiperidin-3-yl)amino]phenyl]piperidine-1-carbonyl]piperidin-1-yl]pyrimidin-5-yl]-3-[3-[[ethyl(methyl)sulfamoyl]amino]-2,6-difluorobenzoyl]-1H-pyrrolo[2,3-b]pyridine] |
| 0.011 µM | 7% |  | CCN(C)S(=O)(=O)Nc1ccc(F)c(C(=O)c2c[nH]c3ncc(-c4ccc(N5CCC(N(C)C(=O)CN6CCC(c7ccc(NC8CCC(=O)NC8=O)cn7)CC6)CC5)nc4)cc23)c1F (stereo not drawn) [Example A95, 2-[4-[5-[(2,6-Dioxopiperidin-3-yl)amino]pyridin-2-yl]piperidin-1-yl]-N-[1-[5-[3-[3-[[ethyl(methyl)sulfamoyl]amino]-2,6-difluorobenzoyl]-1H-pyrrolo[2,3-b]pyridin-5-yl]pyridin-2-yl]piperidin-4-yl]-N-methylacetamide;hydrochloride] |
| 0.018 µM | 9% |  | CCN(C)S(=O)(=O)Nc1ccc(F)c(C(=O)c2c[nH]c3ncc(-c4ccc(N5CCC(NCC(=O)N6CCC(c7ccc(NC8CCC(=O)NC8=O)cn7)CC6)CC5)cc4)cc23)c1F (stereo not drawn) [Example A96, 5-[4-[4-[[2-[4-[5-[(2,6-Dioxopiperidin-3-yl)amino]pyridin-2-yl]piperidin-1-yl]-2-oxoethyl]amino]piperidin-1-yl]phenyl]-3-[3-[[ethyl(methyl)sulfamoyl]amino]-2,6-difluorobenzoyl]-1H-pyrrolo[2,3-b]pyridine; hydrochloride] |
| 0.084 µM | 12% |  | CCN(C)S(=O)(=O)Nc1ccc(F)c(C(=O)c2c[nH]c3ncc(-c4ccc(N5CCC(NCC(=O)N6CCC(c7ccc(OC8CCC(=O)NC8=O)cn7)CC6)CC5)cc4)cc23)c1F (stereo not drawn) [Example A97, 5-[4-[4-[[2-[4-[5-(2,6-Dioxopiperidin-3-yl)oxypyridin-2-yl]piperidin-1-yl]-2-oxoethyl]amino]piperidin-1-yl]phenyl]-3-[3-[[ethyl(methyl)sulfamoyl]amino]-2,6-difluorobenzoyl]-1H-pyrrolo[2,3-b]pyridine;hydrochloride] |
| 0.012 µM | 12% |  | CCN(C)S(=O)(=O)Nc1ccc(F)c(C(=O)c2c[nH]c3ncc(-c4ccc(N5CCC(NCC(=O)N6CCC(c7ccc(NC8CCC(=O)NC8=O)cc7)CC6)CC5)cc4)cc23)c1F (stereo not drawn) [Example A98, 5-[4-[4-[[2-[4-[4-[(2,6-Dioxopiperidin-3-yl)amino]phenyl]piperidin-1-yl]-2-oxoethyl]amino]piperidin-1-yl]phenyl]-3-[3-[[ethyl(methyl)sulfamoyl]amino]-2,6-difluorobenzoyl]-1H-pyrrolo[2,3-b]pyridine; hydrochloride] |
